Measured values taken from PMC11344480 (ACS infectious diseases, 2021).
Converted amounts (≈) assume the structure as drawn.

What was measured:
C. albicans [1] = assay: Modified MIC50 assay; format: cell-based, C. albicans SC5314; conditions: 24 h
Candida species = conditions: via targeting of AHAS; cited from earlier work
C. albicans AHAS = conditions: cited from earlier work
[2] = XTT reduction viability assay; format: cell-based; conditions: human
C. dubliniensis = assay: Modified MIC50 assay; format: cell-based, C. dubliniensis CD36; conditions: Candida dubliniensis, 24 h
C. albicans [3] = conditions: mice, prophylactic administration; cited from earlier work
C. auris = assay: Modified MIC50 assay; format: cell-based; conditions: Candidozyma auris, 24 h
C. tropicalis = assay: Modified MIC50 assay; format: cell-based, C. tropicalis MYA3404; conditions: Candida tropicalis, 24 h
NLRP3 inflammasome = NLRP3 inflammasome (Homo sapiens, UniProt Q96P20); format: cell-based
NLRP3 inflammasome, sequence (Q96P20 whole entry): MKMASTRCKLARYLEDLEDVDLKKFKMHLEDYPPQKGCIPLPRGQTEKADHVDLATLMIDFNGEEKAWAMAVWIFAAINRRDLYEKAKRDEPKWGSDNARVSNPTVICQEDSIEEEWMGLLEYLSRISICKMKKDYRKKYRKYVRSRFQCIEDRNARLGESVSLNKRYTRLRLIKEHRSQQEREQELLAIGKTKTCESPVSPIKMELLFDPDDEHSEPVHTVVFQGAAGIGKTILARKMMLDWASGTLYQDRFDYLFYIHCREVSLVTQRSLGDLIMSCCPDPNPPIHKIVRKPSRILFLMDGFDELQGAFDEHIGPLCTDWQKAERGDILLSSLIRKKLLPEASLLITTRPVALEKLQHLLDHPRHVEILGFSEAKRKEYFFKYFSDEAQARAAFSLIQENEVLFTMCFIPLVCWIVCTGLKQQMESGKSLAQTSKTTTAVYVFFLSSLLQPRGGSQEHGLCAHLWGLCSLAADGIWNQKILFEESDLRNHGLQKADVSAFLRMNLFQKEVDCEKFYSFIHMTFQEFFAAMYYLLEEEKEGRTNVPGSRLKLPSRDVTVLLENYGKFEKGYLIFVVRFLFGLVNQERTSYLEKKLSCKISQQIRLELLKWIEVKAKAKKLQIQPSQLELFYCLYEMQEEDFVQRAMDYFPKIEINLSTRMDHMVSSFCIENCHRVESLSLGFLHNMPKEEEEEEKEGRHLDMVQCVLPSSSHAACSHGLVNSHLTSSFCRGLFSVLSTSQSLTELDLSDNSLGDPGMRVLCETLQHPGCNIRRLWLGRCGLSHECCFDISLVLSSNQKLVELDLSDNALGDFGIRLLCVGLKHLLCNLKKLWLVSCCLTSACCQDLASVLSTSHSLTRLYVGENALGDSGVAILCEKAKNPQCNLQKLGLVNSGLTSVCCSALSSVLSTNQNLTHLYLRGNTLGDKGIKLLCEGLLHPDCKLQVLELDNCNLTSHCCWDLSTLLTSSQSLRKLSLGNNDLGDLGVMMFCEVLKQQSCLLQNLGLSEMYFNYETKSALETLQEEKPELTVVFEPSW

C. albicans [4] = conditions: prior work of the laboratory; cited from earlier work

CCOC(=O)c1ccccc1S(=O)(=O)NC(=O)Nc1nc(Cl)cc(OC)n1 [Compound 13, chlorimuron ethyl]
MIC50 (C. albicans [1]; C. albicans, YNB, mean ± SD): 0.5 ± 0.2 µM (≈ 0.207 µg/mL)
MIC50 (C. albicans [1]; Candida albicans): 0.5 µM (≈ 0.207 µg/mL)
growth of the Candida species (Candida species): effective at reducing growth
inhibition of purified C. albicans AHAS protein (C. albicans AHAS): potent inhibitors
viability at 5 h, 50 µM [2]: 103 ± 7.3%
MIC50 (C. dubliniensis): 1.3 ± 0.7 µM (≈ 0.539 µg/mL)
fungal burden in the kidney, spleen, liver, and lungs (C. albicans [3]): significantly reduced fungal burden
protection against disseminated C. albicans infection (C. albicans [3]): provided protection
MIC50 (C. auris): 0.8 ± 0.3 µM (≈ 0.332 µg/mL)
MIC50 (C. tropicalis): 21.1 ± 3 µM (≈ 8.75 µg/mL)
IC50 (NLRP3 inflammasome): > 50 µM

COc1ccc(Cl)cc1C(=O)NCCc1ccc(S(=O)(=O)NC(=O)NC2CCCCC2)cc1 [glyburide]
preventing fungal growth or filamentation (C. albicans [4]): completely ineffective
